{"source": "patent US20240245666A1", "about": "“DOSING REGIMENS” (Novartis AG, priority 2021, published 2024)", "key": {"[1]": {"assay": "Phase I study, FE study group: asciminib under fasted, low-fat meal and high-fat meal conditions (PK and safety);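 as to all read-outs here: healthy volunteers, open-label single-center study, PK parameters from individual plasma concentration-time profiles by non-compartmental analysis, 7-day washout between treatment periods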", "settings": "for asciminib AUCinf, Gmean / asciminib AUCinf, Median / asciminib AUCinf, adjusted Gmean / asciminib AUClast, Gmean / asciminib AUClast, Median / asciminib AUClast, adjusted Gmean / asciminib Cmax, Gmean / asciminib Cmax, Median / asciminib Cmax, Range / asciminib Cmax, adjusted Gmean / asciminib T1/2, Range / asciminib Tmax, Range / reduction in asciminib exposure (AUCinf; AUCinf and AUClast) compared with fasted conditions / asciminib Tmax, Median: single 40 mg"}, "clinical [2]": {"assay": "clinical", "settings": "human, plasma, oral, 40 mg"}, "clinical [3]": {"assay": "clinical", "settings": "human, in vivo, 40 mg"}, "[4]": {"assay": "In vitro flux study: dissolution and permeation of asciminib film-coated tablets through an artificial lipid membrane", "type": "in vitro ADME", "settings": "2×20 mg film-coated tablets; for flux rate (permeation through an artificial lipid membrane): 37° C.", "procedure": "The donor compartment of a United States Pharmacopeia, Method II (USP II) dissolution apparatus (Distek corporation; New Jersey, United States) was filled with 900 mL maleate buffer containing either low concentrations of bile salts (imitating fasted conditions; Fasted State Simulated Intestinal Fluid [FaSSIF]; 3 mM taurocholate/taurodeoxycholate, 0.2 mM phospholipids/lysophospholipids, pH 5.8), high concentrations of bile salts (imitating fed intestinal conditions; Fed State Simulated Intestinal Fluid [FeSSIF]; 10 mM taurocholate/taurodeoxycholate, 2 mM phospholipids/lysophospholipids, 0.8/5.0 mM oleate/glycerol monoleate, pH 6.0), or no bile salts (control; pH 6.5). […] Two replicates per condition were performed."}, "[5]": {"settings": "single agent, patients with CML; cited from earlier work"}, "[6]": {"settings": "initial asciminib tablet formulations, cited from earlier work"}, "[7]": {"assay": "Phase I study, DDI study group: asciminib with or without imatinib at steady state under low-fat meal conditions (PK and safety)", "settings": "imatinib 400 mg qd steady state alone (Day 12)"}, "[8]": {"settings": "control buffer, no bile salts (pH 6.5)"}, "[9]": {"settings": "fasted state buffer (FaSSIF, pH 5.8)"}, "[10]": {"settings": "fed state buffer (FeSSIF, pH 6.0)"}}, "note": "Several values for one entry are separate records, joined by “and”; a condition that tells them apart may be missing. Equal values may be shown once. Read-outs that look alike come from different tables or passages of the source."}
{"smiles": "O=C(Nc1ccc(OC(F)(F)Cl)cc1)c1cnc(N2CC[C@@H](O)C2)c(-c2ccn[nH]2)c1", "note": "[asciminib, N-[4-(Chlorodifluoromethoxy)phenyl]-6-[(3R)-3-hydroxypyrrolidin-1-yl]-5-(1H-pyrazol-5-yl)pyridine-3-carboxamide]", "values": [{"measurement": "participants with at least 1 AE", "setting": "[1]; FE group, 11 of 24 participants", "value": 45.8, "unit": "%"}, {"measurement": "participants with oropharyngeal pain and rhinitis (each)", "setting": "[1]; FE group, each n=2", "value": 8.3, "unit": "%"}, {"measurement": "asciminib AUCinf, Gmean", "setting": "[1]; fasted, n=24", "value": 5830, "unit": "ng·h/mL"}, {"measurement": "asciminib AUCinf, Median", "setting": "[1]; fasted, n=24", "value": 5890, "unit": "ng·h/mL"}, {"measurement": "asciminib AUCinf, adjusted Gmean", "setting": "[1]; fasted, n=24", "value": 5830, "unit": "ng·h/mL"}, {"measurement": "asciminib AUClast, Gmean", "setting": "[1]; fasted, n=24", "value": 5730, "unit": "ng·h/mL"}, {"measurement": "asciminib AUClast, Median", "setting": "[1]; fasted, n=24", "value": 5820, "unit": "ng·h/mL"}, {"measurement": "asciminib AUClast, adjusted Gmean", "setting": "[1]; fasted, n=24", "value": 5730, "unit": "ng·h/mL"}, {"measurement": "asciminib Cmax, Gmean", "setting": "[1]; fasted, n=24", "value": 550, "unit": "ng/mL"}, {"measurement": "asciminib Cmax, Median", "setting": "[1]; fasted, n=24", "value": 572, "unit": "ng/mL"}, {"measurement": "asciminib Cmax, Range", "setting": "[1]; fasted, n=24", "value": "280 to 1050", "unit": "ng/mL"}, {"measurement": "asciminib Cmax, adjusted Gmean", "setting": "[1]; fasted, n=24", "value": 550, "unit": "ng/mL"}, {"measurement": "asciminib T1/2, Range", "setting": "[1]; fasted, n=24", "value": "9.18 to 19.1", "unit": "h"}, {"measurement": "asciminib Tmax, Range", "setting": "[1]; fasted, n=24", "value": "1.00 to 5.00", "unit": "h"}, {"measurement": "reduction in asciminib exposure (AUCinf; AUCinf and AUClast) compared with fasted conditions", "setting": "[1]; high-fat meal", "value": "62.3% and 62-63%"}, {"measurement": "asciminib AUCinf, Gmean", "setting": "[1]; high-fat meal, n=24", "value": 2200, "unit": "ng·h/mL"}, {"measurement": "asciminib AUCinf, Median", "setting": "[1]; high-fat meal, n=24", "value": 2040, "unit": "ng·h/mL"}, {"measurement": "asciminib AUCinf, adjusted Gmean", "setting": "[1]; high-fat meal, n=24", "value": 2200, "unit": "ng·h/mL"}, {"measurement": "asciminib AUClast, Gmean", "setting": "[1]; high-fat meal, n=24", "value": 2130, "unit": "ng·h/mL"}, {"measurement": "asciminib AUClast, Median", "setting": "[1]; high-fat meal, n=24", "value": 1960, "unit": "ng·h/mL"}, {"measurement": "asciminib AUClast, adjusted Gmean", "setting": "[1]; high-fat meal, n=24", "value": 2130, "unit": "ng·h/mL"}, {"measurement": "asciminib Cmax, Gmean", "setting": "[1]; high-fat meal, n=24", "value": 175, "unit": "ng/mL"}, {"measurement": "asciminib Cmax, Median", "setting": "[1]; high-fat meal, n=24", "value": 159, "unit": "ng/mL"}, {"measurement": "asciminib Cmax, Range", "setting": "[1]; high-fat meal, n=24", "value": "82.2 to 423", "unit": "ng/mL"}, {"measurement": "asciminib Cmax, adjusted Gmean", "setting": "[1]; high-fat meal, n=24", "value": 175, "unit": "ng/mL"}, {"measurement": "asciminib T1/2, Range", "setting": "[1]; high-fat meal, n=24", "value": "8.81 to 18.1", "unit": "h"}, {"measurement": "asciminib Tmax, Median", "setting": "[1]; high-fat meal, n=24", "value": 4.01, "unit": "h"}, {"measurement": "asciminib Tmax, Range", "setting": "[1]; high-fat meal, n=24", "value": "1.00 to 8.00", "unit": "h"}, {"measurement": "reduction in asciminib exposure (AUCinf; AUCinf and AUClast) compared with fasted conditions", "setting": "[1]; low-fat meal", "value": 30, "unit": "%"}, {"measurement": "asciminib AUCinf, Gmean", "setting": "[1]; low-fat meal, n=23", "value": 4130, "unit": "ng·h/mL"}, {"measurement": "asciminib AUCinf, Median", "setting": "[1]; low-fat meal, n=23", "value": 4300, "unit": "ng·h/mL"}, {"measurement": "asciminib AUCinf, adjusted Gmean", "setting": "[1]; low-fat meal, n=23", "value": 4080, "unit": "ng·h/mL"}, {"measurement": "asciminib AUClast, Gmean", "setting": "[1]; low-fat meal, n=23", "value": 4060, "unit": "ng·h/mL"}, {"measurement": "asciminib AUClast, Median", "setting": "[1]; low-fat meal, n=23", "value": 4270, "unit": "ng·h/mL"}, {"measurement": "asciminib AUClast, adjusted Gmean", "setting": "[1]; low-fat meal, n=23", "value": 4010, "unit": "ng·h/mL"}, {"measurement": "asciminib Cmax, Gmean", "setting": "[1]; low-fat meal, n=23", "value": 363, "unit": "ng/mL"}, {"measurement": "asciminib Cmax, Median", "setting": "[1]; low-fat meal, n=23", "value": 365, "unit": "ng/mL"}, {"measurement": "asciminib Cmax, Range", "setting": "[1]; low-fat meal, n=23", "value": "172 to 709", "unit": "ng/mL"}, {"measurement": "asciminib Cmax, adjusted Gmean", "setting": "[1]; low-fat meal, n=23", "value": 359, "unit": "ng/mL"}, {"measurement": "asciminib T1/2, Range", "setting": "[1]; low-fat meal, n=23", "value": "9.70 to 17.7", "unit": "h"}, {"measurement": "asciminib Tmax, Median", "setting": "[1]; low-fat meal, n=23", "value": 3.00, "unit": "h"}, {"measurement": "asciminib Tmax, Range", "setting": "[1]; low-fat meal, n=23", "value": "0.997 to 5.00", "unit": "h"}, {"measurement": "half-life", "setting": "clinical [2]", "value": 13.5, "unit": "h"}, {"measurement": "clearance", "setting": "clinical [3]", "value": 185, "unit": "mL/min"}, {"measurement": "dissolution", "setting": "[4]; [8]", "value": 82.3, "unit": "%"}, {"measurement": "flux rate (permeation through an artificial lipid membrane)", "setting": "[4]; [8]", "value": 2.66, "unit": "µg/min"}, {"measurement": "dissolution", "setting": "[4]; [9]", "value": 93.1, "unit": "%"}, {"measurement": "flux rate (permeation through an artificial lipid membrane)", "setting": "[4]; [9]", "value": 1.45, "unit": "µg/min"}, {"measurement": "dissolution", "setting": "[4]; [10]", "value": 94.2, "unit": "%"}, {"measurement": "flux rate (permeation through an artificial lipid membrane)", "setting": "[4]; [10]", "value": 0.44, "unit": "µg/min"}, {"measurement": "maximum tolerated dose (not reached)", "setting": "[5]", "value": "> 200", "unit": "mg twice daily"}, {"measurement": "decreased asciminib exposure compared with the fasted state", "setting": "[6]; high-fat meal", "value": "~65% and 63-64%"}, {"measurement": "decreased asciminib exposure compared with the fasted state", "setting": "[6]; low-fat meal", "value": "~30% and 30-31%"}]}
{"smiles": "Cc1ccc(NC(=O)c2ccc(CN3CCN(C)CC3)cc2)cc1Nc1nccc(-c2cccnc2)n1", "note": "[imatinib]", "values": [{"measurement": "imatinib AUC0-24h, Gmean", "setting": "[7]", "value": "33,600 ng×h/mL"}, {"measurement": "imatinib AUClast, Gmean", "setting": "[7]", "value": "33,600 ng×h/mL"}]}
